The OPERA property sets (Mansouri et al. 2018)

| logP | SMILES |
| --- | --- |
| 1.16 | CC(C)(C(N)=O)n1nc2ccccc2n1 |
| 1.88 | CCCCC(C(N)=O)n1nnc2ccccc21 (centres undefined) |
| 0.88 | CCC(C(N)=O)n1nnc2ccccc21 (centres undefined) |
| 3.63 | c1ccc2nn(C3CCCCC3)nc2c1 |
| 2.88 | CCOC(=O)C(CC)n1nc2ccccc2n1 (centres undefined) |
| 2.28 | CCCCC(C(N)=O)n1nc2ccccc2n1 (centres undefined) |
| 2.27 | CCOC(=O)CC(C)n1nnc2ccccc21 (centres undefined) |
| 2.34 | CCOC(=O)C(CC)n1nnc2ccccc21 (centres undefined) |
| 2.61 | c1ccc2c(c1)nnn2C1CCCC1 |
| 1.35 | CC(CCC(N)=O)n1nc2ccccc2n1 (centres undefined) |
| 3.32 | CCCCC(C(=O)OCC)n1nnc2ccccc21 (centres undefined) |
| 0.15 | CC(CCC(=O)O)n1nnc2ccccc21 (centres undefined) |
| -0.2 | CC(CC(=O)O)n1nnc2ccccc21 (centres undefined) |
| 3.38 | CCCC(C(=O)OCC)n1nc2ccccc2n1 (centres undefined) |
| 1.38 | CCCC(C(N)=O)n1nnc2ccccc21 (centres undefined) |

Continued, compound first:

| SMILES | logP |
| --- | --- |
| c1ccc2nn(C3CCCC3)nc2c1 | 3.04 |
| CCOC(=O)C(C)n1nnc2ccccc21 (centres undefined) | 1.87 |
| CCCC(C(N)=O)n1nc2ccccc2n1 (centres undefined) | 1.75 |
| CCCCC(C(=O)OCC)n1nc2ccccc2n1 (centres undefined) | 3.88 |
| CC(C)(C(=O)O)n1nc2ccccc2n1 | 0.64 |
| CC(C(N)=O)n1nc2ccccc2n1 (centres undefined) | 0.86 |
| CC(C)(C(=O)O)n1nnc2ccccc21 | -0.2 |
| CCCC(C(=O)OCC)n1nnc2ccccc21 (centres undefined) | 2.82 |
| CC(C)(C(N)=O)n1nnc2ccccc21 | 0.76 |
| c1ccc2c(c1)nnn2C1CCCCC1 | 3.11 |
| CCOC(=O)C(C)n1nc2ccccc2n1 (centres undefined) | 2.38 |
| CCC(C(N)=O)n1nc2ccccc2n1 (centres undefined) | 1.25 |
| CC(CCC(=O)O)n1nc2ccccc2n1 (centres undefined) | 0.69 |
| CCOC(=O)CC(C)n1nc2ccccc2n1 (centres undefined) | 2.7 |
